Data: patent publication US4778797A, “Organo-silicon compounds, process for the manufacture of same, and anti-tumor agent comprising the compound” (Sanwa Kagaku Kenkyusho Co., Ltd., priority 1984, dated 1988)
≈ marks a conversion by molar mass, not a printed value. Where two headings read alike, the source gives them in different places.

What was measured:
KB cells = assay: Suppression of KB cell proliferation in vitro; type: cell-based; details: Homo sapiens, 72 h, 3 days exposure, Trypan Blue dye-exclusion, read-out: KB IC50 (50% inhibition density to tumor cell proliferation)
Description: In a cultivation device (5% CO2, 37° C.), KB cells (1×10^4 cells) were cultivated for 24 hours in a culture tube with 1 ml of Eagle culture medium added 10% ox serum, the used culture medium was thrown away to change with a fresh culture medium (0.9 ml), and then 0.1 ml of a similar culture fluid containing each testing compound prepared by the process as described in the Examples was added to cultivate the same for further 3 days. Thereafter, living cells were dyed with Tripan Blue and measured same through a dye-exclusion method.
A control was treated in a manner similar to the above, except that a culture fluid containing no compound of the invention was added.
50% inhibition density (IC50) to the tumor cell proliferation was decided through the tests between the testing group and the control group to obtain results as shown in following Table 1.

Lewis lung carcinoma = assay: Anti-tumor action to Lewis lung carcinoma (primary tumor weight and metastasis); type: in vivo, BDF1 mice; details: Mus musculus, po, 504 h
Source text: Lewis lung carcinoma (1×10^5 cells) was transplanted under skin of right ear of BDF1 mice (age of about 5 weeks), and each of testing compounds was orally dosed 10 times from 1st to 10th day after the transplantation. At 21st day after the transplantation, the mice were killed to measure a weight of the primarly tumor and to extract a lung. The lung was fixed in a conventional manner to count a number of metastasis on cancerous cells with use of a stereomicroscope having a low magnification. An anti-tumor action of each compound was expressed with an inhibition in weight of the primarly tumor and an inhibition of the metastasis.

Colon-38 carcinoma = assay: Anti-tumor action to Colon-38 carcinoma; type: in vivo, BDF1 mice; details: oral, tumor weight at 28th day
Description: 0.02 ml of 10(W/V)% cell suspension prepared from a solid cancer cell (Colon-38 carcinoma) were transplanted under skin of BDF1 mice (20-21 g, age of about 5 weeks), and each of testing compounds was orally dosed to the mice at 1st, 5th and 9th day after the transplantation. A major and minor axes of the cancerous tumor were measured at 11th, 14th, 21st, 25th and 28th day after the transplantation to calcurate volume of the tumor in accordance with the following.
At 28th day from the transplantation, the mice were killed and each of the cancerous tumors was extracted to measure its weight and to determine an inhibitation ratio in comparison with a non-treated control group.

L-1210 leukemia = assay: Anti-tumor action to L-1210 leukemia; type: in vivo, BDF1 female mice; details: Mus musculus, L1210, oral; for ILS at 250 mg/kg/day: 250 mg/kg/day × 3 (1st, 5th, 9th day); for ILS at 500 mg/kg/day: 500 mg/kg/day × 3 (1st, 5th, 9th day)
Description: L-1210 leukemia cell (1×10^5 cells) was transplanted in a abdominal cavity of BDF1 female mice (20-21 g, age of about 5 weeks), and each of testing compounds was orally dosed in 250 mg/kg or 500 mg/kg at 1st, 5th and 9th day after the transplantation to check days of life of the mice. [formula]

B-16 melanoma = assay: Anti-tumor action to B-16 melanoma; type: in vivo, BDF1 female mice; details: oral, tumor weight at 21st day; for inhibition in vivo at 100 mg/kg/day: 100 mg/kg/day × 3; for inhibition in vivo at 200 mg/kg/day: 200 mg/kg/day × 3; for inhibition in vivo at 400 mg/kg/day: 400 mg/kg/day × 3
Source text: B-16 melanoma (1×10^5 cells) was transplanted under skin of BDF1 female mice (age of about 5 weeks), and each of testing compounds was orally dosed at 1st, 5th and 9th day after the transplantation. At 21st day after the transplantation, the mice were killed to measure a weight of the cancerous tumor and to finally determine an inhibition ratio.

[1] = Mus musculus, B16, 504 h, 125 mg/kg/day × 3, read-out: B-16 melanoma Inhibition ratio
[2] = Mus musculus, B16, 504 h, read-out: B-16 melanoma Inhibition ratio

## CCCCCCCC[Si](C)(C)CCSCCNC(=O)n1cc(F)c(=O)[nH]c1=O [Example 4, N-[2-[[2-(Dimethyloctylsilyl)ethyl]thio]ethyl]-5-fluoro-3,4-dihydro-2,4-dioxo-1(2H)-pyrimidinecarboxamide]
KB cells
  IC50: 20 µg/mL (≈ 46.3 µM)
Lewis lung carcinoma; 32 mg/kg/day × 10, 21st day, read-out: Inhibition Ratio weight LLC
  inhibition in vivo at 32 mg/kg/day: 4.6%
Lewis lung carcinoma; 32 mg/kg/day × 10, lung, 21st day, read-out: Inhibition Ratio metastasis
  inhibition in vivo at 32 mg/kg/day: 76.2%
Lewis lung carcinoma; 64 mg/kg/day × 10, 21st day, read-out: Inhibition Ratio weight LLC
  inhibition in vivo at 64 mg/kg/day: 18%
Lewis lung carcinoma; 64 mg/kg/day × 10, lung, 21st day, read-out: Inhibition Ratio metastasis
  inhibition in vivo at 64 mg/kg/day: 97.5%
Colon-38 carcinoma; 345 mg/kg/day × 3
  colon-38 Inhibition ratio: 80.0%
L-1210 leukemia; read-out: L-1210 ILS
  ILS at 250 mg/kg/day: 12%
  ILS at 500 mg/kg/day: 38%
L-1210 leukemia; read-out: L-1210 Judgement
  ILS at 250 mg/kg/day: < 25%
  ILS at 500 mg/kg/day: 25 to 50%

## C[Si](CCSCCNC(=O)n1cc(F)c(=O)[nH]c1=O)(c1ccccc1)c1ccccc1 [Example 7, 5-Fluoro-3,4-dihydro-N-[2-[[2-(methyldiphenylsilyl)ethyl]thio]ethyl]-2,4-dioxo-1(2H)-pyrimidinecarboxamide]
KB cells
  IC50: 4 µg/mL (≈ 8.74 µM)
Lewis lung carcinoma; 34 mg/kg/day × 10, 21st day, read-out: Inhibition Ratio weight LLC
  inhibition in vivo at 34 mg/kg/day: 31%
Lewis lung carcinoma; 34 mg/kg/day × 10, lung, 21st day, read-out: Inhibition Ratio metastasis
  inhibition in vivo at 34 mg/kg/day: 67.1%
Lewis lung carcinoma; 68 mg/kg/day × 10, 21st day, read-out: Inhibition Ratio weight LLC
  inhibition in vivo at 68 mg/kg/day: 25%
Lewis lung carcinoma; 68 mg/kg/day × 10, lung, 21st day, read-out: Inhibition Ratio metastasis
  inhibition in vivo at 68 mg/kg/day: 87.7%
Colon-38 carcinoma; Mus musculus, 672 h, 366 mg/kg/day × 3, read-out: colon-38 Inhibition ratio
  inhibition in vivo at 366 mg/kg/day: 32.2%
L-1210 leukemia; read-out: L-1210 ILS
  ILS at 250 mg/kg/day: 11%
  ILS at 500 mg/kg/day: 11%
L-1210 leukemia; read-out: L-1210 Judgement
  ILS at 250 mg/kg/day: < 25%
  ILS at 500 mg/kg/day: < 25%

## CC(C)[Si](C)(C)CCSCCCNC(=O)n1cc(F)c(=O)[nH]c1=O [Example 9, 5-Fluoro-3,4-dihydro-N-[3-[[2-(isopropyldimethylsilyl)ethyl]thio]propyl]-2,4-dioxo-1(2H)-pyrimidinecarboxamide]
KB cells
  IC50: 15 µg/mL (≈ 39.9 µM)
B-16 melanoma; 125 mg/kg/day × 3
  B-16 melanoma Inhibition ratio: 17.6%
B-16 melanoma; 250 mg/kg/day × 3
  B-16 melanoma Inhibition ratio: 19.4%
Colon-38 carcinoma; 338 mg/kg/day × 3
  colon-38 Inhibition ratio: 98.4%
L-1210 leukemia; read-out: L-1210 ILS
  ILS at 250 mg/kg/day: 45%
  ILS at 500 mg/kg/day: 80%
L-1210 leukemia; read-out: L-1210 Judgement
  ILS at 250 mg/kg/day: 25 to 50%
  ILS at 500 mg/kg/day: 50 to 100%

## CC(C)[Si](C)(C)CCCSCCCNC(=O)n1cc(F)c(=O)[nH]c1=O [Example 11, 5-Fluoro-3,4-dihydro-N-[3-[[3-(isopropyldimethylsilyl)propyl]thio]propyl]-2,4-dioxo-1(2H)-pyrimidinecarboxamide]
KB cells
  IC50: 13 µg/mL (≈ 33.4 µM)
B-16 melanoma; 125 mg/kg/day × 3
  B-16 melanoma Inhibition ratio: 32.8%
B-16 melanoma; 250 mg/kg/day × 3
  B-16 melanoma Inhibition ratio: 45.7%
Colon-38 carcinoma; 350 mg/kg/day × 3
  colon-38 Inhibition ratio: 90.3%
L-1210 leukemia; read-out: L-1210 ILS
  ILS at 250 mg/kg/day: 18%
  ILS at 500 mg/kg/day: 81%
L-1210 leukemia; read-out: L-1210 Judgement
  ILS at 250 mg/kg/day: < 25%
  ILS at 500 mg/kg/day: 50 to 100%

## CC(C)[Si](C)(C)CCCSCCNC(=O)n1cc(F)c(=O)[nH]c1=O [Example 12, 5-Fluoro-3,4-dihydro-N-[2-[[3-(isopropyldimethylsilyl)propyl]thio]ethyl]-2,4-dioxo-1(2H)-pyrimidinecarboxamide]
KB cells
  IC50: 15 µg/mL (≈ 39.9 µM)
B-16 melanoma; [1]
  inhibition in vivo at 125 mg/kg/day: 34.2%
B-16 melanoma; Mus musculus, B16, 504 h, 250 mg/kg/day × 3, read-out: B-16 melanoma Inhibition ratio
  inhibition in vivo at 250 mg/kg/day: 37.9%
Colon-38 carcinoma; Mus musculus, 672 h, 338 mg/kg/day × 3, read-out: colon-38 Inhibition ratio
  inhibition in vivo at 338 mg/kg/day: 97.3%
L-1210 leukemia; read-out: L-1210 ILS
  ILS at 250 mg/kg/day: 24%
  ILS at 500 mg/kg/day: 70%
L-1210 leukemia; read-out: L-1210 Judgement
  ILS at 250 mg/kg/day: < 25%
  ILS at 500 mg/kg/day: 50 to 100%

## CC(C)(C)[Si](C)(C)CCCSCCNC(=O)n1cc(F)c(=O)[nH]c1=O [Example 13, N-[2-[[3-(t-Butyldimethylsilyl)propyl]thio]ethyl]-5-fluoro-3,4-dihydro-2,4-dioxo-1(2H)-pyrimidinecarboxamide]
KB cells
  IC50: 13 µg/mL (≈ 33.4 µM)
B-16 melanoma; [1]
  inhibition in vivo at 125 mg/kg/day: 38%
B-16 melanoma; 250 mg/kg/day × 3
  B-16 melanoma Inhibition ratio: 43.1%
Colon-38 carcinoma; 311 mg/kg/day × 3
  colon-38 Inhibition ratio: 81.0%
L-1210 leukemia; read-out: L-1210 ILS
  ILS at 250 mg/kg/day: 10%
  ILS at 500 mg/kg/day: 67%
L-1210 leukemia; read-out: L-1210 Judgement
  ILS at 250 mg/kg/day: < 25%
  ILS at 500 mg/kg/day: 50 to 100%

## CC(C)(C)[Si](C)(C)CCCSCCCNC(=O)n1cc(F)c(=O)[nH]c1=O [Example 14, N-[3-[[3-(t-Butyldimethylsilyl)propyl]thio]propyl]-5-fluoro-3,4-dihydro-2,4-dioxo-1(2H)-pyrimidinecarboxamide]
B-16 melanoma; 125 mg/kg/day × 3
  B-16 melanoma Inhibition ratio: 55.2%
B-16 melanoma; 250 mg/kg/day × 3
  B-16 melanoma Inhibition ratio: 46.3%
Colon-38 carcinoma; 323 mg/kg/day × 3
  colon-38 Inhibition ratio: 90.1%
L-1210 leukemia; read-out: L-1210 ILS
  ILS at 250 mg/kg/day: 19%
  ILS at 500 mg/kg/day: 68%
L-1210 leukemia; read-out: L-1210 Judgement
  ILS at 250 mg/kg/day: < 25%
  ILS at 500 mg/kg/day: 50 to 100%

## CCCC[Si](C)(C)CCCSCCCNC(=O)n1cc(F)c(=O)[nH]c1=O [Example 15, N-[3-[[3-(Butyldimethylsilyl)propyl]thio]propyl]-5-fluoro-3,4-dihydro-2,4-dioxo-1(2H)-pyrimidinecarboxamide]
B-16 melanoma; 125 mg/kg/day × 3
  B-16 melanoma Inhibition ratio: 69.5%
B-16 melanoma; 250 mg/kg/day × 3
  B-16 melanoma Inhibition ratio: 88.5%
Colon-38 carcinoma; 323 mg/kg/day × 3
  colon-38 Inhibition ratio: 92.3%
L-1210 leukemia; read-out: L-1210 ILS
  ILS at 250 mg/kg/day: 26%
  ILS at 500 mg/kg/day: 62%
L-1210 leukemia; read-out: L-1210 Judgement
  ILS at 250 mg/kg/day: 25 to 50%
  ILS at 500 mg/kg/day: 50 to 100%

## C[Si](C)(CCCSCCCNC(=O)n1cc(F)c(=O)[nH]c1=O)c1ccccc1 [Example 16, N-[3-[[3-(Dimethylphenylsilyl)propyl]thio]propyl]-5-fluoro-3,4-dihydro-2,4-dioxo-1(2H)-pyrimidinecarboxamide]
B-16 melanoma; 125 mg/kg/day × 3
  B-16 melanoma Inhibition ratio: 82.2%
B-16 melanoma; 250 mg/kg/day × 3
  B-16 melanoma Inhibition ratio: 70.5%
Colon-38 carcinoma; 339 mg/kg/day × 3
  colon-38 Inhibition ratio: 97.9%
L-1210 leukemia; read-out: L-1210 ILS
  ILS at 250 mg/kg/day: 23%
  ILS at 500 mg/kg/day: 86%
L-1210 leukemia; read-out: L-1210 Judgement
  ILS at 250 mg/kg/day: < 25%
  ILS at 500 mg/kg/day: 50 to 100%

## CCCC[Si](C)(C)CCSCCCNC(=O)n1cc(F)c(=O)[nH]c1=O [Example 17, N-[3-[[2-(Butyldimethylsilyl)ethyl]thio]propyl]-5-fluoro-3,4-dihydro-2,4-dioxo-1(2H)-pyrimidinecarboxamide]
B-16 melanoma; [2]
  inhibition in vivo at 100 mg/kg/day: 54.3%
  inhibition in vivo at 200 mg/kg/day: 16.3%
  inhibition in vivo at 400 mg/kg/day: 34.8%
Colon-38 carcinoma; Mus musculus, 672 h, 312 mg/kg/day × 3, read-out: colon-38 Inhibition ratio
  inhibition in vivo at 312 mg/kg/day: 97.4%

## C[Si](C)(CCSCCCNC(=O)n1cc(F)c(=O)[nH]c1=O)c1ccccc1 [Example 18, N-[3-[[2-(Dimethylphenylsilyl)ethyl]thio]propyl]-5-fluoro-3,4-dihydro-2,4-dioxo-1(2H)-pyrimidinecarboxamide]
B-16 melanoma; [2]
  inhibition in vivo at 100 mg/kg/day: 55.2%
  inhibition in vivo at 200 mg/kg/day: 46.7%
  inhibition in vivo at 400 mg/kg/day: 29.6%
Colon-38 carcinoma; Mus musculus, 672 h, 328 mg/kg/day × 3, read-out: colon-38 Inhibition ratio
  inhibition in vivo at 328 mg/kg/day: 71.3%
